Measured values reported in ChEMBL document CHEMBL2203285, “Radiofluorinated histamine H₃ receptor antagonist as a potential probe for in vivo PET imaging: radiosynthesis and pharmacological evaluation” (Bioorg Med Chem, 2012).

Tests used:
[1] = Drug uptake in Sprague-Dawley rat intraorbital lacrimal gland at 29.1 MBq after 70 to 100 mins post injection by PET imaging; type: ADME, tissue-based; conditions: in vivo
[2] = Drug uptake in Sprague-Dawley rat urinary bladder at 29.1 MBq after 70 to 100 mins post injection by PET imaging; type: ADME, tissue-based; conditions: in vivo
[3] = Drug uptake in Sprague-Dawley rat Spinal colum at 29.1 MBq after 70 to 100 mins post injection by PET imaging; type: ADME; conditions: in vivo
[4] = Permeability from apical to basolateral side in MDCK2 cells by gamma counting; type: ADME, cell-based, Canis lupus familiaris; conditions: dog, mdck-ii
Rattus norvegicus [5] = assay: Stability in Sprague-Dawley rat assessed as parent compound level at 250 MBq, iv measured 5 to 30 mins post dose; type: ADME, organism-based; conditions: in vivo
Histamine H3 receptor [6] = target: T1, Histamine H3 receptor (Rattus norvegicus, UniProt Q9QYN8); assay: Binding affinity to rat brain histamine H3 receptor after 1 hr by gamma counting
T1 sequence (Q9QYN8 whole entry): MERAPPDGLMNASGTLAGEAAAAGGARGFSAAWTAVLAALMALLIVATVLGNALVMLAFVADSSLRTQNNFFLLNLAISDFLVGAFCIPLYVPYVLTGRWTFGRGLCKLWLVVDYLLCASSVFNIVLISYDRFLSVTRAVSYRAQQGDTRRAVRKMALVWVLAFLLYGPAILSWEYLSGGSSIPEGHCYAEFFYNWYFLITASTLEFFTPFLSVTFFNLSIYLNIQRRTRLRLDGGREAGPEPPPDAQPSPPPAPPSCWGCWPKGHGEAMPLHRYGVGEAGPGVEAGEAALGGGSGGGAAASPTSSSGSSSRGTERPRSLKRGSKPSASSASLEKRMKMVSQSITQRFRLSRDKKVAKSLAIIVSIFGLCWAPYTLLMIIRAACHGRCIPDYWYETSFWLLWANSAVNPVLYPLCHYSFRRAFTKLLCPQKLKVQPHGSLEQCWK

[7] = Permeability from basolateral to apical side in MDCK2 cells by gamma counting; type: ADME, cell-based, Canis lupus familiaris; conditions: dog, mdck-ii
Thalamus [8] = assay: Drug uptake in Sprague-Dawley rat thalamus at 0.01 nM after 45 mins by autoradiography; type: ADME, tissue-based; conditions: 10 pM
[9] = Metabolic stability human plasma assessed as compound degradation at 60 MBq after 120 mins by UPLC analysis; type: ADME, cell-free; conditions: read-out: Drug degradation
[10] = Drug uptake in Sprague-Dawley rat harderin gland at 29.1 MBq after 70 to 100 mins post injection by PET imaging; type: ADME, tissue-based; conditions: in vivo
Cerebellum = assay: Drug uptake in Sprague-Dawley rat cerebellum at 0.01 nM after 45 mins by autoradiography; type: ADME, tissue-based; conditions: 10 pM
[11] = Drug uptake in Sprague-Dawley rat thyroid gland at 29.1 MBq after 70 to 100 mins post injection by PET imaging; type: ADME, tissue-based; conditions: in vivo
Liver = assay: Drug uptake in Sprague-Dawley rat liver at 29.1 MBq after 70 to 100 mins post injection by PET imaging; type: ADME, tissue-based; conditions: in vivo
Thalamus [12] = assay: Drug uptake in Sprague-Dawley rat thalamus at 0.01 nM in presence of 100 uM histamine after 45 mins by autoradiography; type: ADME, tissue-based; conditions: 10 pM
Cerebral cortex [13] = assay: Drug uptake in Sprague-Dawley rat Cerebral cortex at 29.1 MBq after 70 to 100 mins post injection by PET imaging; type: ADME, tissue-based; conditions: in vivo
Striatum [14] = assay: Drug uptake in Sprague-Dawley rat striatum at 0.01 nM in presence of 100 uM histamine after 45 mins by autoradiography; type: ADME, tissue-based; conditions: 10 pM
Cerebral cortex [15] = assay: Drug uptake in Sprague-Dawley rat cerebral cortex at 0.01 nM after 45 mins by autoradiography; type: ADME, tissue-based; conditions: 10 pM
[16] = Metabolic stability human plasma assessed as parent compound level at 60 MBq after 90 mins by UPLC analysis; type: ADME, cell-free; conditions: read-out: Stability
Hippocampus [17] = assay: Drug uptake in Sprague-Dawley rat hippocampus at 0.01 nM in presence of 100 uM histamine after 45 mins by autoradiography; type: ADME, tissue-based; conditions: 10 pM
Kidney = assay: Drug uptake in Sprague-Dawley rat kidney pelvis at 29.1 MBq after 70 to 100 mins post injection by PET imaging; type: ADME, tissue-based; conditions: in vivo
Rattus norvegicus [18] = assay: Drug uptake in Sprague-Dawley rat at 29.1 MBq after 70 to 100 mins post injection coadministered with 2 mg/kg ciproxifan by PET imaging; type: ADME, organism-based; design: dose 2 mg/kg; conditions: in vivo
Liver microsomes [19] = assay: Metabolic stability rat liver microsome after 120 mins by UPLC analysis; type: ADME; conditions: 2 h
MDR1 [20] = assay: Apparent permeability from apical to basolateral side in MDCK2 cells expressing MDR1 by gamma counting; type: ADME, cell-based, Canis lupus familiaris, MDCK-II; conditions: dog, MDCK-MDR1
Liver microsomes [21] = assay: Metabolic stability human liver microsome after 120 mins by UPLC analysis; type: ADME; conditions: 2 h
MDR1 [22] = assay: Efflux ratio of permeability from basolateral to apical side over apical to basolateral side in MDCK2 cells expressing MDR1 by gamma counting; type: ADME, cell-based, Canis lupus familiaris, MDCK-II; conditions: dog, MDCK-MDR1
[23] = Distribution coefficient, log D of the compound in octanol and PBS buffer at pH 7.4 by shake-flask method; type: physicochemical
Rattus norvegicus [24] = assay: Drug uptake in Sprague-Dawley rat at 29.1 MBq after 70 to 100 mins post injection coadministered with 1 mg/kg ST900 by PET imaging; type: ADME, organism-based; design: dose 1 mg/kg; conditions: in vivo
[25] = Drug uptake in Sprague-Dawley rat salivary gland at 29.1 MBq after 70 to 100 mins post injection by PET imaging; type: ADME, tissue-based; conditions: in vivo
Hippocampus [26] = assay: Drug uptake in Sprague-Dawley rat hippocampus at 0.01 nM after 45 mins by autoradiography; type: ADME, tissue-based; conditions: 10 pM
[27] = Drug uptake in Sprague-Dawley rat skeleton joint at 29.1 MBq after 70 to 100 mins post injection by PET imaging; type: ADME, tissue-based; conditions: in vivo
Striatum [28] = assay: Drug uptake in Sprague-Dawley rat Striatum at 29.1 MBq after 70 to 100 mins post injection by PET imaging; type: ADME, tissue-based; conditions: in vivo
Adrenal gland = assay: Drug uptake in Sprague-Dawley rat adrenal gland at 29.1 MBq after 70 to 100 mins post injection by PET imaging; type: ADME, tissue-based; conditions: in vivo
MDR1 [29] = assay: Apparent permeability from basolateral to apical side in MDCK2 cells expressing MDR1 by gamma counting; type: ADME, cell-based, Canis lupus familiaris, MDCK-II; conditions: dog, MDCK-MDR1
Plasma = assay: Metabolic stability human plasma at 60 MBq after 60 mins by UPLC analysis; type: ADME, cell-free; conditions: 1 h
Intestine = assay: Drug uptake in Sprague-Dawley rat intestine at 29.1 MBq after 70 to 100 mins post injection by PET imaging; type: ADME, tissue-based; conditions: in vivo
Histamine H3 receptor [30] = target: T1, Histamine H3 receptor; assay: Binding affinity to rat histamine H3 receptor low affinity site after 1 hr by Schard plot analysis
[31] = Drug level in Sprague-Dawley urine rat assessed as parent compound level at 250 MBq, iv measured 30 mins post dose; type: ADME, organism-based; conditions: in vivo, 0.5 h
Striatum [32] = assay: Drug uptake in Sprague-Dawley rat striatum at 0.01 nM after 45 mins by autoradiography; type: ADME, tissue-based; conditions: 10 pM
Cerebral cortex [33] = assay: Drug uptake in Sprague-Dawley rat cerebral cortex at 0.01 nM in presence of 100 uM histamine after 45 mins by autoradiography; type: ADME, tissue-based; conditions: 10 pM
Histamine H3 receptor [34] = target: T1, Histamine H3 receptor; assay: Binding affinity to rat cerebral cortex histamine H3 receptor; type: tissue-based
[35] = Metabolic stability human liver microsomes assessed as compound oxidation after 90 mins by UPLC analysis; type: ADME, Microsome; conditions: read-out: Drug metabolism
Liver microsomes [36] = assay: Metabolic stability rat liver microsome after 90 mins by UPLC analysis; type: ADME; conditions: 1.5 h

[18F]C1CCN(Cc2ccc(OCCCN3CCCCC3)cc2)CC1
Drug uptake [1]: Active
Drug uptake [2]: Active
Drug uptake [3]: Active
permeability [4]: permeable
Stability (Rattus norvegicus [5]): Stable
Kd (Histamine H3 receptor [6]): 0.34 nM
permeability [7]: permeable
Drug uptake (Thalamus [8]): Active
metabolised at 2 h, 60 MBq [9]: 3%
Drug uptake [10]: Active
Drug uptake (Cerebellum): Not Active
Drug uptake [11]: Active
Drug uptake (Liver): Active
Drug uptake (Thalamus [12]): Not Active
Drug uptake (Cerebral cortex [13]): Not Active
Drug uptake (Striatum [14]): Not Active
Drug uptake (Cerebral cortex [15]): Active
remaining at 1.5 h, 60 MBq [16]: 98%
Drug uptake (Hippocampus [17]): Not Active
Drug uptake (Kidney): Active
Drug uptake (Rattus norvegicus [18]): Active
Stability (Liver microsomes [19]): Stable
Papp A→B (MDR1 [20]): 0.16 ×10⁻⁶ cm/s
Stability (Liver microsomes [21]): Stable
efflux ratio (MDR1 [22]): 0.8
logD [23]: 0.35
Drug uptake (Rattus norvegicus [24]): Active
Drug uptake [25]: Active
Drug uptake (Hippocampus [26]): Active
Drug uptake [27]: Active
Drug uptake (Striatum [28]): Not Active
Drug uptake (Adrenal gland): Active
Papp B→A (MDR1 [29]): 0.12 ×10⁻⁶ cm/s
Stability (Plasma): Stable
Drug uptake (Intestine): Active
Kd (Histamine H3 receptor [30]): > 3000 nM
Drug uptake [31]: 90%
Drug uptake (Striatum [32]): Active
Drug uptake (Cerebral cortex [33]): Not Active

O=C(O)c1cn(C2CC2)c2cc(N3CCNCC3)c(F)cc2c1=O [CIPROFLOXACIN]
Ki (Histamine H3 receptor [34]): 0.654 nM

C[C@]12CC[C@H]3[C@@H](CCC4=CC(=O)CC[C@@]43C)[C@@H]1CC[C@@H]2O [TESTOSTERONE]
metabolised at 1.5 h [35]: 60%
Stability (Liver microsomes [36]): Unstable

CC[C@]1(O)C[C@@H]2CN(CCc3c([nH]c4ccccc34)[C@@](C(=O)OC)(c3cc4c(cc3OC)N(C)[C@H]3[C@@](O)(C(=O)OC)[C@H](OC(C)=O)[C@]5(CC)C=CCN6CC[C@]43[C@@H]65)C2)C1 [VINBLASTINE]
Papp A→B (MDR1 [20]): 0.22 ×10⁻⁶ cm/s
efflux ratio (MDR1 [22]): 15
Papp B→A (MDR1 [29]): 3.24 ×10⁻⁶ cm/s
